By Kd is commonly meant the equilibrium constant for the complex coming apart.

Data set [1] has as its target T1, Carbonic anhydrase II (bovine) (Bos taurus, UniProt P00921).
T1 construct: purchased Sigma (St. Louis, Mo.)
Briefly: SPR binding of CA to immobilised benzene sulfonamide ligands. (In general: In SPR one partner is held on a chip, and binding of the other changes the refractive index at the surface.)
Description: Curve 1: CA (5 μM) with a mixture of proteins (each at 0.2 mg/mL) including fibrinogen, RNase, lysozyme, and myoglobin; Curve 2: CA (5 μM); Curve 3: a mixture of proteins as in 1 without CA; Curve 4: CA (5 μM) with 1 mM soluble benzenesulfonamide ligand.

Data set [2] concerns mixture of fibrinogen, myoglobin, lysozyme, and RNase. The data set can be described thus: SPR nonspecific adsorption from a mixture of proteins. The format is binding. To be noted: mixed SAM presenting 13 and —CONH(CH2CH2O)6H/—CO2H groups.
The target of data set [3] is CA (Bos taurus, UniProt P00921). To be noted: soluble ligand; cited from earlier work.
Data set [4] in a line: Contact angle of deionized water under cyclooctane. The format is physicochemical.
The target in data set [5] is lysozyme (Gallus gallus, UniProt P00698). The data set can be described thus: SPR adsorption of lysozyme to SAMs / grafted polymer films. The following applies: lysozyme, single-component SAMs (a) and mixed SAMs (b). The format is binding.
In data set [6] the target is T2, fibrinogen (Bos taurus, UniProt P02672+P02676+P12799).
T2 sequence (P02672 20-615): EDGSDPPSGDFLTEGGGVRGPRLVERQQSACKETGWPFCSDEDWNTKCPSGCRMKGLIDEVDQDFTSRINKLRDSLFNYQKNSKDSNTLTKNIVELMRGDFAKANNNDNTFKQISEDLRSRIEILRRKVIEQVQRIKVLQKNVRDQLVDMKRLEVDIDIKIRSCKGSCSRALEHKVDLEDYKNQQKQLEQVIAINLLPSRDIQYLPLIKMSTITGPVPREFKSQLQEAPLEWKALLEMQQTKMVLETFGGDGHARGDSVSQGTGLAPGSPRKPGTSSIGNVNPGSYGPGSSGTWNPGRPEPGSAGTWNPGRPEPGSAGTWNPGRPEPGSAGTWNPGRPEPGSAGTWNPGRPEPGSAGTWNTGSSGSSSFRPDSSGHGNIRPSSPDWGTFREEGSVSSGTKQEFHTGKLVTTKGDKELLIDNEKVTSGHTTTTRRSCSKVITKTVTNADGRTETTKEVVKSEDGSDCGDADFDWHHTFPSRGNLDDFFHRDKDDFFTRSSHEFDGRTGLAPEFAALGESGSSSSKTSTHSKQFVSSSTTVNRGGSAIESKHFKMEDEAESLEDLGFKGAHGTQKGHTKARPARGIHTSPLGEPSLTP
T2 sequence (P02676 1-468): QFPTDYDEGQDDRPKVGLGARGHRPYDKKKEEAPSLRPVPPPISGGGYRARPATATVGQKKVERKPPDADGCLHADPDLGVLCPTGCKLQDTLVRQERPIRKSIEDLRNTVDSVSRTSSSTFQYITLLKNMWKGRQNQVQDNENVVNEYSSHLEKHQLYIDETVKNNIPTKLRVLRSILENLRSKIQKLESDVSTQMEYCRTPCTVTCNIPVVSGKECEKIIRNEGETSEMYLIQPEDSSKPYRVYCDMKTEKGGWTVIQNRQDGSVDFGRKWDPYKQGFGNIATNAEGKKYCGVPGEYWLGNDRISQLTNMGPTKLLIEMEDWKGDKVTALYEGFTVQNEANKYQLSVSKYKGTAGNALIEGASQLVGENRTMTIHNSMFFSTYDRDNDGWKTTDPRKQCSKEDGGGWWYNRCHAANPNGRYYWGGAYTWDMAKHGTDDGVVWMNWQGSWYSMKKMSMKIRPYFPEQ
T2 sequence (P12799 25-444): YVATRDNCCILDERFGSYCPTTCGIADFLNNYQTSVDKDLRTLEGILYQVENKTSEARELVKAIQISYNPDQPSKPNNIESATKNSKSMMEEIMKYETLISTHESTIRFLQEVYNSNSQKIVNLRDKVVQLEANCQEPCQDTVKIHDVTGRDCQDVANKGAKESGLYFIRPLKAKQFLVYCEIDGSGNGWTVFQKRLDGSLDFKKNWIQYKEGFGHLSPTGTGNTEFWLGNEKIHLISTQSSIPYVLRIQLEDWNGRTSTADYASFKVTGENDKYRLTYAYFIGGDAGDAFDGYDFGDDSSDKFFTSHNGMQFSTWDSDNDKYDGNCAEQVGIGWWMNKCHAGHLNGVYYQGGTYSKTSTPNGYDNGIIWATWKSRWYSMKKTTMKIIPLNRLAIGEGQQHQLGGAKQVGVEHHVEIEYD
The data set can be described thus: SPR adsorption of fibrinogen to SAMs / grafted polymer films. The format is binding, bovine.

The mark [7] stands for this setting: fibrinogen, single-component SAMs (a) and mixed SAMs (b).

Chain of lysozyme (P00698 19-147): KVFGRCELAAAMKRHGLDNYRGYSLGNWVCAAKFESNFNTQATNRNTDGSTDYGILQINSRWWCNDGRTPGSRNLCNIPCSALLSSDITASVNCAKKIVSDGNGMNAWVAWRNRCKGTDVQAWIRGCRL
T1 sequence (P00921 whole entry): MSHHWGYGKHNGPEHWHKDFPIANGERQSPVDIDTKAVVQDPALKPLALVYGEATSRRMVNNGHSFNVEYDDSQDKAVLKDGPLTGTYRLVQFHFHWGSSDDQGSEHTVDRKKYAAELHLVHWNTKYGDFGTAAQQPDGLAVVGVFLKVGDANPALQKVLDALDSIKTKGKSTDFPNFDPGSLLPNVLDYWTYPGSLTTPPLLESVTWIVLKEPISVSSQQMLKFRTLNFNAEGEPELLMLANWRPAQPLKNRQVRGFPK
Chain of CA (P00921 whole entry): as above

On to `NCCOCCOCCOCCOCCOCCOCC(=O)NCCCCCCNC(=O)c1ccc(S(N)(=O)=O)cc1` [compound 13, [6-(2-{2-[2-(2-{2-[2-(2-Amino-ethoxy)-ethoxy]-ethoxy}-ethoxy)-ethoxy]-ethoxy}-ethanoylamino)-hexyl]-4-sulfamoyl-benzamide], for which, in data set [1] (CA 5 μM in PBS, mixed SAM presenting 13), the “reversibility of binding of CA” value is given as over 90%. The compound also came in with a kon in data set [1] (SPR, CA 5 μM in PBS, surfaces of this work (entry 4, LPEI entries 6-9)) of 13000 M^-1S^-1. The koff in data set [1] (SPR, surfaces of this work (entry 4, LPEI entries 6-9)) is given as 0.0054 S^-1. The “nonspecific adsorption of protein” value in data set [2] is “did not adsorb a detectable amount of protein”.
As to `COC(=O)CNC(=O)c1ccc(S(N)(=O)=O)cc1` [benzene sulfonamide 14, H2NSO2C6H4—CONHCH2CO2CH3, reference compound], the “competitive inhibition of binding of CA to the mixed SAM presenting 13” value in data set [1] (1 mM added to the CA-containing solution) was “completely inhibited”. Further, the Kd in data set [3] was 63 µM.
`NCCOCCOCCO` [Entry 3b, H(OCH2CH2)3NH2, reference compound] yielded a θco sessile in data set [4] of 50 degrees. The “% ML 3 min” value came to 1% in data set [5] (footnote b (30 minutes)); 1% in data set [5]; 1% in data set [6] (fibrinogen, single-component SAMs (a, RSH) and mixed SAMs (b, RNH2)). Moreover, the dR/dt on in data set [5] came to 85 RU/sec; in data set [6] (setting [7]) it was 30 RU/sec. Also, the “% ML 30 min” value in data set [6] (setting [7]) is reported as 2%. Moreover, the “% Fib off” value in data set [6] (single-component SAMs (a) and mixed SAMs (b)) turned out to be 11%.

(Values after patent US7494714B2, “Surfaces that resist the adsorption of biological species” (President & Fellows of Harvard College, priority 2000, dated 2009).)
